Tests used:
Assay in all cases: KINOMEscan scanMAX
Assay type in all cases: binding
[1] = target: T1, ABL1(M351T)-phosphorylated (Homo sapiens, UniProt P00519, M351T); conditions: read-out: Percent Control
T1 construct: purchased Eurofins Discovery (DiscoverX KINOMEscan scanMAX)
Experimental: (§1) The kinome-wide binding assay was performed by Eurofins Discovery using the scanMAX screening platform. More information can be found on the Eurofins Discovery Web site.

ADCK4 = target: T2, ADCK4 (Homo sapiens, UniProt Q96D53); conditions: read-out: Percent Control
T2 construct: purchased Eurofins Discovery (DiscoverX KINOMEscan scanMAX)
Experimental: as §1

CAMK1B = target: T3, CAMK1B (Homo sapiens, UniProt Q6P2M8); conditions: read-out: Percent Control
T3 construct: purchased Eurofins Discovery (DiscoverX KINOMEscan scanMAX)
Experimental: as §1

CDK2 = target: T4, CDK2 (Homo sapiens, UniProt P24941); conditions: read-out: Percent Control
T4 construct: purchased Eurofins Discovery (DiscoverX KINOMEscan scanMAX)
Experimental: as §1

CDK4-cyclinD3 = target: T5, CDK4-cyclinD3 (Homo sapiens, UniProt P11802); conditions: read-out: Percent Control
T5 construct: purchased Eurofins Discovery (DiscoverX KINOMEscan scanMAX)
Experimental: as §1

CDKL5 = target: T6, CDKL5 (Homo sapiens, UniProt O76039); conditions: read-out: Percent Control
T6 construct: purchased Eurofins Discovery (DiscoverX KINOMEscan scanMAX)
Experimental: as §1

CIT = target: T7, CIT (Homo sapiens, UniProt O14578); conditions: read-out: Percent Control
T7 construct: purchased Eurofins Discovery (DiscoverX KINOMEscan scanMAX)
Experimental: as §1

CLK3 = target: T8, CLK3 (Homo sapiens, UniProt P49761); conditions: read-out: Percent Control
T8 construct: purchased Eurofins Discovery (DiscoverX KINOMEscan scanMAX)
Experimental: as §1

CSNK2A1 = target: T9, CSNK2A1 (Homo sapiens, UniProt P68400); conditions: read-out: Percent Control
T9 construct: purchased Eurofins Discovery (DiscoverX KINOMEscan scanMAX)
Experimental: as §1

DMPK2 = target: T10, DMPK2 (Homo sapiens, UniProt Q6DT37); conditions: read-out: Percent Control
T10 construct: purchased Eurofins Discovery (DiscoverX KINOMEscan scanMAX)
Experimental: as §1

EGFR(L747-T751del,Sins) = system: EGFR(L747-T751del,Sins)
Experimental: as §1

EPHA5 = target: T11, EPHA5 (Homo sapiens, UniProt P54756); conditions: read-out: Percent Control
T11 construct: purchased Eurofins Discovery (DiscoverX KINOMEscan scanMAX)
Experimental: as §1

EPHB2 = target: T12, EPHB2 (Homo sapiens, UniProt P29323); conditions: read-out: Percent Control
T12 construct: purchased Eurofins Discovery (DiscoverX KINOMEscan scanMAX)
Experimental: as §1

ERK2 = target: T13, ERK2 (Homo sapiens, UniProt P28482); conditions: read-out: Percent Control
T13 construct: purchased Eurofins Discovery (DiscoverX KINOMEscan scanMAX)
Experimental: as §1

GRK4 = target: T14, GRK4 (Homo sapiens, UniProt P32298); conditions: read-out: Percent Control
T14 construct: purchased Eurofins Discovery (DiscoverX KINOMEscan scanMAX)
Experimental: as §1

IGF1R = target: T15, IGF1R (Homo sapiens, UniProt P08069); conditions: read-out: Percent Control
T15 construct: purchased Eurofins Discovery (DiscoverX KINOMEscan scanMAX)
Experimental: as §1

LATS1 = target: T16, LATS1 (Homo sapiens, UniProt O95835); conditions: read-out: Percent Control
T16 construct: purchased Eurofins Discovery (DiscoverX KINOMEscan scanMAX)
Experimental: as §1

MAP4K2 = target: T17, MAP4K2 (Homo sapiens, UniProt Q12851); conditions: read-out: Percent Control
T17 construct: purchased Eurofins Discovery (DiscoverX KINOMEscan scanMAX)
Experimental: as §1

NEK11 = target: T18, NEK11 (Homo sapiens, UniProt Q8NG66); conditions: read-out: Percent Control
T18 construct: purchased Eurofins Discovery (DiscoverX KINOMEscan scanMAX)
Experimental: as §1

PAK2 = target: T19, PAK2 (Homo sapiens, UniProt Q13177); conditions: read-out: Percent Control
T19 construct: purchased Eurofins Discovery (DiscoverX KINOMEscan scanMAX)
Experimental: as §1

PAK6 = target: T20, PAK6 (Homo sapiens, UniProt Q9NQU5); conditions: read-out: Percent Control
T20 construct: purchased Eurofins Discovery (DiscoverX KINOMEscan scanMAX)
Experimental: as §1

PDGFRA = target: T21, PDGFRA (Homo sapiens, UniProt P16234); conditions: read-out: Percent Control
T21 construct: purchased Eurofins Discovery (DiscoverX KINOMEscan scanMAX)
Experimental: as §1

PIK3CA(C420R) = target: T22, PIK3CA(C420R) (Homo sapiens, UniProt P42336, C420R); conditions: read-out: Percent Control
T22 construct: purchased Eurofins Discovery (DiscoverX KINOMEscan scanMAX)
Experimental: as §1

PIK3CA(I800L) = target: T23, PIK3CA(I800L) (Homo sapiens, UniProt P42336, I800L); conditions: read-out: Percent Control
T23 construct: purchased Eurofins Discovery (DiscoverX KINOMEscan scanMAX)
Experimental: as §1

PYK2 = target: T24, PYK2 (Homo sapiens, UniProt Q14289); conditions: read-out: Percent Control
T24 construct: purchased Eurofins Discovery (DiscoverX KINOMEscan scanMAX)
Experimental: as §1

STK16 = target: T25, STK16 (Homo sapiens, UniProt O75716); conditions: read-out: Percent Control
T25 construct: purchased Eurofins Discovery (DiscoverX KINOMEscan scanMAX)
Experimental: as §1

TAOK2 = target: T26, TAOK2 (Homo sapiens, UniProt Q9UL54); conditions: read-out: Percent Control
T26 construct: purchased Eurofins Discovery (DiscoverX KINOMEscan scanMAX)
Experimental: as §1

TNIK = target: T27, TNIK (Homo sapiens, UniProt Q9UKE5); conditions: read-out: Percent Control
T27 construct: purchased Eurofins Discovery (DiscoverX KINOMEscan scanMAX)
Experimental: as §1

TNK1 = target: T28, TNK1 (Homo sapiens, UniProt Q13470); conditions: read-out: Percent Control
T28 construct: purchased Eurofins Discovery (DiscoverX KINOMEscan scanMAX)
Experimental: as §1

TRKA = target: T29, TRKA (Homo sapiens, UniProt P04629); conditions: read-out: Percent Control
T29 construct: purchased Eurofins Discovery (DiscoverX KINOMEscan scanMAX)
Experimental: as §1

VPS34 = target: T30, VPS34 (Homo sapiens, UniProt Q8NEB9); conditions: read-out: Percent Control
T30 construct: purchased Eurofins Discovery (DiscoverX KINOMEscan scanMAX)
Experimental: as §1

VRK2 = target: T31, VRK2 (Homo sapiens, UniProt Q86Y07); conditions: read-out: Percent Control
T31 construct: purchased Eurofins Discovery (DiscoverX KINOMEscan scanMAX)
Experimental: as §1

WNK1 = target: T32, WNK1 (Homo sapiens, UniProt Q9H4A3); conditions: read-out: Percent Control
T32 construct: purchased Eurofins Discovery (DiscoverX KINOMEscan scanMAX)
Experimental: as §1

p38-beta = target: T33, p38-beta (Homo sapiens, UniProt Q15759); conditions: read-out: Percent Control
T33 construct: purchased Eurofins Discovery (DiscoverX KINOMEscan scanMAX)
Experimental: as §1

T22 sequence (P42336 whole entry C420R): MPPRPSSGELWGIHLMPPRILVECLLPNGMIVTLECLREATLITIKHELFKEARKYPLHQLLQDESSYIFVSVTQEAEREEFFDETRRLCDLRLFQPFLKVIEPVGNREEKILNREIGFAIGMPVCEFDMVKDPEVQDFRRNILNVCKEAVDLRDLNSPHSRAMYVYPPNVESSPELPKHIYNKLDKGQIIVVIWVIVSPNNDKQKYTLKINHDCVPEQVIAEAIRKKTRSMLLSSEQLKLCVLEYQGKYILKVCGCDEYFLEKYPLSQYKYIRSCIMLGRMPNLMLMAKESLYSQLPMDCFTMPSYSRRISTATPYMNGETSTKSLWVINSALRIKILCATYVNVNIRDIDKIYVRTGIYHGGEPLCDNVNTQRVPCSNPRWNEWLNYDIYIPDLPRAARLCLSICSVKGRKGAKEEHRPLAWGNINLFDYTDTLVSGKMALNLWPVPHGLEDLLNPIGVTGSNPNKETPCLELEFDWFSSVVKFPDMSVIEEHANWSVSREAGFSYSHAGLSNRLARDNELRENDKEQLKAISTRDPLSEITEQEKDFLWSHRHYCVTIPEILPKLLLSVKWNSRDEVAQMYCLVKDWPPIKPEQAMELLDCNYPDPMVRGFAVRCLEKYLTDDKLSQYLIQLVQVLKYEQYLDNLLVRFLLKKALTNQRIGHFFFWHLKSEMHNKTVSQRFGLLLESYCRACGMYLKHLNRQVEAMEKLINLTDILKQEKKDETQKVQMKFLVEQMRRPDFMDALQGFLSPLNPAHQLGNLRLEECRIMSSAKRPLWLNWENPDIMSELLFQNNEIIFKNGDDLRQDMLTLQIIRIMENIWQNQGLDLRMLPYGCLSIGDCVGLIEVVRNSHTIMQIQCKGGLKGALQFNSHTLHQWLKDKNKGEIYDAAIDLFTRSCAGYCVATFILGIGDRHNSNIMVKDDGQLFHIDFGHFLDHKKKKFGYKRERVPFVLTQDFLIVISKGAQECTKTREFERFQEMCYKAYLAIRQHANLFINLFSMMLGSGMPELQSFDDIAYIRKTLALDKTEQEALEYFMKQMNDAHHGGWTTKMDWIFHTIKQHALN
T13 sequence (P28482 whole entry): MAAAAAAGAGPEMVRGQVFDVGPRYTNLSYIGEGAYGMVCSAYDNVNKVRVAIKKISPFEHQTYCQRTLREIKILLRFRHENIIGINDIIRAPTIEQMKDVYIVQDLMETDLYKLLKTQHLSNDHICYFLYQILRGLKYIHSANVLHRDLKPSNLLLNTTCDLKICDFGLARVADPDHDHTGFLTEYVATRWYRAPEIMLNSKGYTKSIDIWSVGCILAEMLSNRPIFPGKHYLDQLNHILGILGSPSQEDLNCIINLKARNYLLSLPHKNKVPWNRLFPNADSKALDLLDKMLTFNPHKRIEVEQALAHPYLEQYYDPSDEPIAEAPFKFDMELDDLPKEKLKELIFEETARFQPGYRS
T2 sequence (Q96D53 whole entry): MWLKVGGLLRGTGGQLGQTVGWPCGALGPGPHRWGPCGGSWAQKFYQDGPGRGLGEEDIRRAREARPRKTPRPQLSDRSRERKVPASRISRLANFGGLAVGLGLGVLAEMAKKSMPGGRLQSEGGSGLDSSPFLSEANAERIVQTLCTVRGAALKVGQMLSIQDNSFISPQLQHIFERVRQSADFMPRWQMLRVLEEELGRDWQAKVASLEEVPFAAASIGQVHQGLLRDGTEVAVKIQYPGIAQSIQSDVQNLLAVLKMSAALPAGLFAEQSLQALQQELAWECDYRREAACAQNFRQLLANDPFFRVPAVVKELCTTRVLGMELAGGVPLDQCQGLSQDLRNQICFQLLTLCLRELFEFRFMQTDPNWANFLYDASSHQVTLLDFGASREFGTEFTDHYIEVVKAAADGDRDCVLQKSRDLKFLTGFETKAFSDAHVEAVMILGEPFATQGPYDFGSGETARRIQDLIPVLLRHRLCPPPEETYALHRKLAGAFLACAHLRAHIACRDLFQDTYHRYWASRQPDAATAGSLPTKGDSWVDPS
T31 sequence (Q86Y07 whole entry): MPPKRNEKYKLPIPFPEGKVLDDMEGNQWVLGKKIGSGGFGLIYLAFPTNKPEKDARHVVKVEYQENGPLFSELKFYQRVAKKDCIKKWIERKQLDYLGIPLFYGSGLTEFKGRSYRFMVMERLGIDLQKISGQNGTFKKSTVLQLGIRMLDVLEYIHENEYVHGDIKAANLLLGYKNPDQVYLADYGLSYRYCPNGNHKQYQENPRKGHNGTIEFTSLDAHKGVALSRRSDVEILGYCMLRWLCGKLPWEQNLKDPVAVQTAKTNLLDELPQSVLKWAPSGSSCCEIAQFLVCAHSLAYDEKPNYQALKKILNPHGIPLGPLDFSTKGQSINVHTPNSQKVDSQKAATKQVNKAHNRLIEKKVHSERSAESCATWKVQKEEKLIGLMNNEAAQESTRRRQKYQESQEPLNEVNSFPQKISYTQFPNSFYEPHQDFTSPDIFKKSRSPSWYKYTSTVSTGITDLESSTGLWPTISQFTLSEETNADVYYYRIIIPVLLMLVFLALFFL
T32 sequence (Q9H4A3 whole entry): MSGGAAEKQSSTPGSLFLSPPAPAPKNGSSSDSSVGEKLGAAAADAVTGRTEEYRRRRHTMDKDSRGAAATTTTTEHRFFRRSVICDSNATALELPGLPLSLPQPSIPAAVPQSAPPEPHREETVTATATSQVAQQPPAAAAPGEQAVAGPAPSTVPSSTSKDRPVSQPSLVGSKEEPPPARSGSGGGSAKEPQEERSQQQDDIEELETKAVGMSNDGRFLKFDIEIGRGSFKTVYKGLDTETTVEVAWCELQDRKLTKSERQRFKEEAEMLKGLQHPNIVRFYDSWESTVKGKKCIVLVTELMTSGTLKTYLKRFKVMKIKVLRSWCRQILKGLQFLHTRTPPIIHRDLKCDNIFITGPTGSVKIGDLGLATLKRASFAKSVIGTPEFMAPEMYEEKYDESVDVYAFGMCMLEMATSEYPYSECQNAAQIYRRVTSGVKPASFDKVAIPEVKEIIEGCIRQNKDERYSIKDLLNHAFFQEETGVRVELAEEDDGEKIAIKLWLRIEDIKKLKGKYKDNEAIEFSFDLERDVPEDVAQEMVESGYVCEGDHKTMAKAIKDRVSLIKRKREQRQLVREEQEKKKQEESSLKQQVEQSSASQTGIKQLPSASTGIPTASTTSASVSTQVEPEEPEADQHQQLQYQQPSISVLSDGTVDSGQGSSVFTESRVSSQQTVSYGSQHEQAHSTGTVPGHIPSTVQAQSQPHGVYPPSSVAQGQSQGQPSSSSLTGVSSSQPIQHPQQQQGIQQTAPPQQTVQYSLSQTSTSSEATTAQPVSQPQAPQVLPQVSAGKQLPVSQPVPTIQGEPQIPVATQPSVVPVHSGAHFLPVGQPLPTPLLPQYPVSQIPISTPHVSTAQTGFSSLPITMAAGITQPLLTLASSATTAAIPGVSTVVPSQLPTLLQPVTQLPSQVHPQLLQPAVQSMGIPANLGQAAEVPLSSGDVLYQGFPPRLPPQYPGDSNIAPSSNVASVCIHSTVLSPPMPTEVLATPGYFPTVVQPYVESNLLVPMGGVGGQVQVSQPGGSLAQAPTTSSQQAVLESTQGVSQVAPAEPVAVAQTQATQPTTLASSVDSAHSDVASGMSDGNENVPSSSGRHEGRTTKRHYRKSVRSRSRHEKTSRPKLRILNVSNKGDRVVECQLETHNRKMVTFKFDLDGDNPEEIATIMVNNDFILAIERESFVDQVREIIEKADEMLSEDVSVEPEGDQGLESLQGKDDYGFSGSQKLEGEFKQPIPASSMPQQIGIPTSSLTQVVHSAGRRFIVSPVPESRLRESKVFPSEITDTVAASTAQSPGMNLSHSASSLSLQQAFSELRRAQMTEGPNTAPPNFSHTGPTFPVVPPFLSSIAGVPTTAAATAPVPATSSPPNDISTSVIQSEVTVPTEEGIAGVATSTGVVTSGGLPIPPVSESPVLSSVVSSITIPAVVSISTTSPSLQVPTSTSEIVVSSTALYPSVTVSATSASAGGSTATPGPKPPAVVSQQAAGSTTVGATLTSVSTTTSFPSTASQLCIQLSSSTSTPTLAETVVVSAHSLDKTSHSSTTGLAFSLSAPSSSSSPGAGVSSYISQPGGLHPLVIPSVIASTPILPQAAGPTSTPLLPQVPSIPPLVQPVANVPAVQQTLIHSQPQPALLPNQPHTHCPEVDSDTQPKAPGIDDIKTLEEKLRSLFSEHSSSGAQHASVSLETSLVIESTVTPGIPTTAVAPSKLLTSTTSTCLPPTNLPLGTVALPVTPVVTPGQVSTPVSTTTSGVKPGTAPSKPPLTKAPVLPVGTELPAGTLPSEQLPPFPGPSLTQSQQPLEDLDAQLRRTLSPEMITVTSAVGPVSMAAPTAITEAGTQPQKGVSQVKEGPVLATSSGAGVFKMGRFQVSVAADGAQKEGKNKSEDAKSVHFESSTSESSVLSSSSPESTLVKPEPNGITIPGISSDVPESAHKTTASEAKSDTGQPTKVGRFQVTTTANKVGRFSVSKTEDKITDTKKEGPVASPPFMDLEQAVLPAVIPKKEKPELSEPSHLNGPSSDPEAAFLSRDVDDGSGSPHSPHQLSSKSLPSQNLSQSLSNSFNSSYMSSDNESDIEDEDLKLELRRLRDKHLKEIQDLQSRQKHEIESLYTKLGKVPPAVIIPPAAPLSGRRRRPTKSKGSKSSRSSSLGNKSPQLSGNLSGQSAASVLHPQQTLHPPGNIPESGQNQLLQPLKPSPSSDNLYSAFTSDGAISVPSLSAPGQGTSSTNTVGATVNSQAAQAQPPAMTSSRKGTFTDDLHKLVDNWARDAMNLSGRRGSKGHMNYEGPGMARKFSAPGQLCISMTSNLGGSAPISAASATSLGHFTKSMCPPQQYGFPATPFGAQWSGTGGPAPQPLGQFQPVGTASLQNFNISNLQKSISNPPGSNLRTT
T23 sequence (P42336 whole entry I800L): as the sequence (P42336 whole entry C420R) above, with R420C, I800L counted along it

Cc1cc(Nc2ccc(F)c(CC3(C(=O)N4CCC(F)(CN5CCN(c6ccc(N7CCC(=O)NC7=O)cn6)CC5)CC4)CCN(Cc4cccc(Cl)c4F)CC3)n2)n[nH]1 [SK5527]
remaining binding at 0.1 µM ([1]; 100 nM): 70%
remaining binding at 1 µM ([1]; 1000 nM): 34%
remaining binding at 0.1 µM (ADCK4; 100 nM): 92%
remaining binding at 1 µM (ADCK4; 1000 nM): 84%
remaining binding at 0.1 µM (CAMK1B; 100 nM): 100%
remaining binding at 1 µM (CAMK1B; 1000 nM): 100%
remaining binding at 0.1 µM (CDK2; 100 nM): 100%
remaining binding at 1 µM (CDK2; 1000 nM): 94%
remaining binding at 0.1 µM (CDK4-cyclinD3; 100 nM): 100%
remaining binding at 1 µM (CDK4-cyclinD3; 1000 nM): 100%
remaining binding at 0.1 µM (CDKL5; 100 nM): 94%
remaining binding at 1 µM (CDKL5; 1000 nM): 81%
remaining binding at 0.1 µM (CIT; 100 nM): 100%
remaining binding at 1 µM (CIT; 1000 nM): 100%
remaining binding at 0.1 µM (CLK3; 100 nM): 100%
remaining binding at 1 µM (CLK3; 1000 nM): 100%
remaining binding at 0.1 µM (CSNK2A1; 100 nM): 90%
remaining binding at 1 µM (CSNK2A1; 1000 nM): 69%
remaining binding at 0.1 µM (DMPK2; 100 nM): 100%
remaining binding at 1 µM (DMPK2; 1000 nM): 100%
Percent Control (EGFR(L747-T751del,Sins); 100 nM): 83%
Percent Control (EGFR(L747-T751del,Sins); 1000 nM): 74%
remaining binding at 0.1 µM (EPHA5; 100 nM): 100%
remaining binding at 1 µM (EPHA5; 1000 nM): 93%
remaining binding at 0.1 µM (EPHB2; 100 nM): 74%
remaining binding at 1 µM (EPHB2; 1000 nM): 95%
remaining binding at 0.1 µM (ERK2; 100 nM): 100%
remaining binding at 1 µM (ERK2; 1000 nM): 97%
remaining binding at 0.1 µM (GRK4; 100 nM): 96%
remaining binding at 1 µM (GRK4; 1000 nM): 100%
remaining binding at 0.1 µM (IGF1R; 100 nM): 87%
remaining binding at 1 µM (IGF1R; 1000 nM): 89%
remaining binding at 0.1 µM (LATS1; 100 nM): 100%
remaining binding at 1 µM (LATS1; 1000 nM): 100%
remaining binding at 0.1 µM (MAP4K2; 100 nM): 88%
remaining binding at 1 µM (MAP4K2; 1000 nM): 95%
remaining binding at 0.1 µM (NEK11; 100 nM): 100%
remaining binding at 1 µM (NEK11; 1000 nM): 100%
remaining binding at 0.1 µM (PAK2; 100 nM): 100%
remaining binding at 1 µM (PAK2; 1000 nM): 79%
remaining binding at 0.1 µM (PAK6; 100 nM): 100%
remaining binding at 1 µM (PAK6; 1000 nM): 100%
remaining binding at 0.1 µM (PDGFRA; 100 nM): 92%
remaining binding at 1 µM (PDGFRA; 1000 nM): 84%
remaining binding at 0.1 µM (PIK3CA(C420R); 100 nM): 63%
remaining binding at 1 µM (PIK3CA(C420R); 1000 nM): 100%
remaining binding at 0.1 µM (PIK3CA(I800L); 100 nM): 85%
remaining binding at 1 µM (PIK3CA(I800L); 1000 nM): 74%
remaining binding at 0.1 µM (PYK2; 100 nM): 91%
remaining binding at 1 µM (PYK2; 1000 nM): 66%
remaining binding at 0.1 µM (STK16; 100 nM): 100%
remaining binding at 1 µM (STK16; 1000 nM): 69%
remaining binding at 0.1 µM (TAOK2; 100 nM): 100%
remaining binding at 1 µM (TAOK2; 1000 nM): 100%
remaining binding at 0.1 µM (TNIK; 100 nM): 96%
remaining binding at 1 µM (TNIK; 1000 nM): 90%
remaining binding at 0.1 µM (TNK1; 100 nM): 66%
remaining binding at 1 µM (TNK1; 1000 nM): 44%
remaining binding at 0.1 µM (TRKA; 100 nM): 32%
remaining binding at 1 µM (TRKA; 1000 nM): 8.3%
remaining binding at 0.1 µM (VPS34; 100 nM): 92%
remaining binding at 1 µM (VPS34; 1000 nM): 39%
remaining binding at 0.1 µM (VRK2; 100 nM): 82%
remaining binding at 1 µM (VRK2; 1000 nM): 77%
remaining binding at 0.1 µM (WNK1; 100 nM): 73%
remaining binding at 1 µM (WNK1; 1000 nM): 77%
remaining binding at 0.1 µM (p38-beta; 100 nM): 100%
remaining binding at 1 µM (p38-beta; 1000 nM): 99%

Reference: article PMC12670405, “Second-Generation AURKA-Targeting PROTACs: Structural Optimization toward in Vivo Degradation in Neuroblastoma” (Journal of Medicinal Chemistry, 2025)
